What was measured:
α-glucosidase [1] = target: T1, α-glucosidase (Saccharomyces cerevisiae, UniProt P53341); test: α-glucosidase inhibition assay (96-well, pNPG substrate, 405 nm); type: biochemical; conditions: S3 Table; for OD of sample: absorbance at 405 nm; for inhibition at 500 µM (stock): test compound 20 μL of 0.5 mM, read-out: Percentage Inhibition
Protocol: The assay is based on the method given by Pistia-Brueggeman with slight modifications. In a 96-well plate 120 μL of sodium phosphate buffer (pH = 7) was taken and 20 μL of the enzyme (2U/mL) was added. Then 20 μL of test compound (0.5 mM) was added and then incubated for 15 min. at 37 °C. In sequence, substrate pNPG (20 μL, 1mM) was taken in each well, and dissolved in buffer. The reaction mixture was again incubated for 15 min. at 37 °C. The reaction was stopped by the addition of 20 μL of 0.1 mM Na2CO3, so that the final volume reaches 200 μL. The activity of the enzyme was measured spectrophotometrically at 405 nm by measuring the concentration of product formed, using SpectraMax M2 (Molecular Devices CA, USA). Each sample was taken in triplicate and the % inhibition was measured. […]

carbonic anhydrase II = target: carbonic anhydrase II; set-up: method as in earlier work; conditions: cited from earlier work
α-glucosidase [2] = target: T1, α-glucosidase; test: Kinetic studies, Line-weaver Burk plot (type of enzyme inhibition); type: biochemical; conditions: Vmax and Km both change with inhibitor concentration
Protocol: The type of enzyme inhibition was determined by using the Line-weaver Burk plot. For this, out of 4 different concentrations of each sample, each concentration is analyzed against 4 different concentrations of substrate ranging from 1 mM to 0.125 mM. The inverse of maximum velocity (1/Vmax), obtained for each concentration, is plotted against the inverse of substrate concentrations (1/[S]) to find out type of enzyme inhibition.

urease = tested on: urease; set-up: method as in earlier work; conditions: cited from earlier work

T1 sequence (P53341 whole entry): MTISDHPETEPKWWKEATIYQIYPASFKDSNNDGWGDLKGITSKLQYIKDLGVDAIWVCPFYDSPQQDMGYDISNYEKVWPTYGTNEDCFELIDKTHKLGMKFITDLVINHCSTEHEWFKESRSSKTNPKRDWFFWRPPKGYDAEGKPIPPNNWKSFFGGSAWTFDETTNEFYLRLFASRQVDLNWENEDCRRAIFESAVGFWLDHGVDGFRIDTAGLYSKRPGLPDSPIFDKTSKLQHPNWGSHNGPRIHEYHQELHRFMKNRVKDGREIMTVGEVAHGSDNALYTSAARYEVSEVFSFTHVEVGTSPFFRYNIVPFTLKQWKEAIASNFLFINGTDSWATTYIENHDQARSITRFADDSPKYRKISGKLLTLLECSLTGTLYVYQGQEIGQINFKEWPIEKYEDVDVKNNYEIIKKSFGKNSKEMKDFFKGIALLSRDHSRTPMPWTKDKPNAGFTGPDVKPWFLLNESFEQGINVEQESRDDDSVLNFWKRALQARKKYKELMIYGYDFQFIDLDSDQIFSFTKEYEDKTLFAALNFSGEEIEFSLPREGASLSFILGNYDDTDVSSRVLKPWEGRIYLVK

Q: Which OD of sample (α-glucosidase [1]) does the source give for `CCCCCCCCCCCCSc1nc2ccccc2n1CC(=O)N/N=C/c1ccc(O)c(OCC)c1` [compound 96] here?
A: 0.64

Q: What about the inhibition at 500 µM (stock) (α-glucosidase [1]) of the same compound?
A: 80.1%

Q: For `O=C(C1=C(c2ccccc2)NC(=S)NC1c1cccc(O)c1)c1ccccc1` (stereo not drawn) [(4-(3-hydroxyphenyl)-6-phenyl-2-thioxo-1,2,3,4-tetrahydropyrimidin-5-yl)phenyl)methanone], which IC50 (carbonic anhydrase II) is on record?
A: 98 µM

Q: What does the source list for `COc1ccc(S(=O)(=O)N2CCC(c3nnc(SC(C)C(=O)Nc4ccc(C)cc4)n3-c3ccccc3)CC2)cc1` (stereo not drawn) [compound 185]?
A: OD of sample (α-glucosidase [1]): 0.49; inhibition at 500 µM (stock) (α-glucosidase [1]): 81.9%

Q: For `O=[N+]([O-])c1ccc(N/N=C\c2ccc(O)cc2)c([N+](=O)[O-])c1` [compound 5], which OD of sample (α-glucosidase [1]) is on record?
A: 0.62

Q: Which results are given for `CCSc1nc2ccccc2n1CC(=O)N/N=C/c1ccc(O)cc1O` [compound 228, (E)-N’-(2,4-dihydroxybenzylidene)-2-(2-(ethylthio)-1H-benzo[d]imidazol-1-yl)acetohydrazide]?
A: OD of sample (α-glucosidase [1]): 0.30; inhibition at 500 µM (stock) (α-glucosidase [1]): 91.2%; mode (type) of enzyme inhibition (α-glucosidase [2]): un-competitive

Q: With `N=C(N)NCCC[C@@H](N)c1nnc(-c2cccs2)o1` [(R)-1-(4-amino-4-(5-(thiophen-2-yl)-1,3,4-oxadiazol-2-yl)butyl)guanidine] as the compound, how does the IC50 (urease) read?
A: 47 µM

Q: With `Clc1ccc(-c2nnc(-c3ccc[nH]3)o2)c(Cl)c1` [compound 25, 2-(2,4-dichlorophenyl)-5-(1H-pyrrol-2-yl)-1,3,4-oxadiazole] as the compound, how does the OD of sample (α-glucosidase [1]) read?
A: 0.33

Q: And the inhibition at 500 µM (stock) (α-glucosidase [1])?
A: 90%

Q: And the “mode (type) of enzyme inhibition” value (α-glucosidase [2])?
A: un-competitive

Q: With `O=C1Oc2ccccc2C(=O)/C1=C/c1ccc(-c2ccccc2)cc1` [compound 54] as the compound, how does the OD of sample (α-glucosidase [1]) read?
A: 0.39

Q: And the inhibition at 500 µM (stock) (α-glucosidase [1])?
A: 85.6%
